Experiments:
[1] = system: Collagen-induced blood-platelet aggregation; test: Collagen-induced blood-platelet aggregation; type: in vivo, Wistar rats; settings: Rattus norvegicus, po; 100 mg/kg orally, rats, 3 hours after treatment; read-out: Percent inhibition of blood-platelet aggregation, Collagen
Description: (§1) A blood sample is taken from the jugular vein of Wistar rats. From this citrated blood and after centifugation, a plasma is reconstituted which contains 600,000 ± 20,000 blood-platelets per ml, which plasma is then used in all aggregation determinations.
(§2) 0.4 ml plasma is placed in a siliconized tube provided with a magnet bar, also siliconized. The tube is introduced into an aggregometer connected to an apparatus which records optical density variations. When light transmission has attained a stable value, 0.5 ml of a solution containing 10 μM A.D.P. (adenosinediphosphate) is added to the tube.
(§3) Blood-platelet aggregation induces an increase of light transmission, followed by a decrease subsequent to the deaggregation phase.
The A.D.P. solution is substituted with a collagen (bovine tendon extract) solution.
(§4) Different groups of 20 rats each are used, each group being orally administered 100 mg/kg of a test derivative.

[2] = system: rat globules (red corpuscles); test: In vitro anti-sludge activity, preventive treatment (protamine sulfate); type: cell-based
Description: (§5) Said activity was investigated in vitro and in vivo in rats.
(§6) Thrice washed rat globules are diluted to 1/250 in physiological saline. In each of 5 tubes are placed 0.6 ml of this suspension and 0.2 ml physiological saline. To each tube is then added 0-25-50-100 and 200 μg, respectively, of the test derivative contained in 0.2 ml solution. After incubation for one hour at 37° C., 0.2 ml of a solution containing 125 μg/ml protamine sulfate are added, after which the tube is then incubated again for 0.5 hour at 37° C. The globules of each tube are then examined with a Mallases cell, and the percent free globules and the percent aggregates formed by 2, 3, 4, 5 etc.. globules is then recorded.

[3] = system: A.D.P. induced blood-platelet aggregation; test: A.D.P. induced blood-platelet aggregation; type: in vivo, Wistar rats; settings: Rattus norvegicus, po; 100 mg/kg orally, rats, 3 hours after treatment, 10 μM A.D.P. solution; read-out: Percent inhibition of blood-platelet aggregation, A.D.P.
Description: as §1, §2, §3, §4

[4] = Acute toxicity (LD50, method according to Miller and Tainter); settings: mouse, in vivo, mice, intravenous, read-out: LD50 /24h/kg body weight
[5] = system: rat globules (red corpuscles); test: In vitro anti-sludge activity, curative procedure (protamine sulfate); type: cell-based; settings: 25 μg
Description: as §5, §6
The experiment was repeated according to a "curvative" procedure; the red corpuscles were first contacted with protamine sulfate and, after incubation for 0.5 hour, 0.2 ml containing 25 μg of test derivative were added thereto, which operation is followed by another incubation for one hour at 37° C. The results obtained are reported in Table III, in which the percent agglomerates as a function of size is indicated.

## O=C(O)[C@@H]1NCc2ccsc2[C@@H]1O (relative stereo) [Example 1, 6-Carboxy-7-hydroxy-4,5,6,7-tetrahydro-thieno[3,2-c]pyridine]
[1]
  inhibition at 100 mg/kg: 95.8%
[2]; 25 μg
  percent agglomerates, size 2: 25%
  percent agglomerates, size 3: 11%
  percent agglomerates, size 4: 0%
  percent agglomerates, size 5: 0%
  percent agglomerates, size 6: 0%
  percent agglomerates, size 7: 0%
  percent agglomerates, size 8: 0%
  percent agglomerates, size 9: 0%
  percent agglomerates, size 10: 0%
  percent agglomerates, size 11: 0%
  percent agglomerates, size 12: 0%
  percent agglomerates, size 13: 0%
  percent free red corpuscles (size of agglomerates 1): 64%
[2]; 50 μg
  percent agglomerates, size 2: 24%
  percent agglomerates, size 3: 5%
  percent agglomerates, size 4: 2%
  percent agglomerates, size 5: 0%
  percent agglomerates, size 6: 0%
  percent agglomerates, size 7: 0%
  percent agglomerates, size 8: 0%
  percent agglomerates, size 9: 0%
  percent agglomerates, size 10: 0%
  percent agglomerates, size 11: 0%
  percent agglomerates, size 12: 0%
  percent agglomerates, size 13: 0%
  percent free red corpuscles (size of agglomerates 1): 69%
[2]; 100 μg
  percent agglomerates, size 2: 7%
  percent agglomerates, size 3: 4%
  percent agglomerates, size 4: 3%
  percent agglomerates, size 5: 0%
  percent agglomerates, size 6: 0%
  percent agglomerates, size 7: 0%
  percent agglomerates, size 8: 0%
  percent agglomerates, size 9: 0%
  percent agglomerates, size 10: 0%
  percent agglomerates, size 11: 0%
  percent agglomerates, size 12: 0%
  percent agglomerates, size 13: 0%
  percent free red corpuscles (size of agglomerates 1): 86%
[2]; 200 μg
  percent agglomerates, size 2: 9%
  percent agglomerates, size 3: 2%
  percent agglomerates, size 4: 0%
  percent agglomerates, size 5: 0%
  percent agglomerates, size 6: 0%
  percent agglomerates, size 7: 0%
  percent agglomerates, size 8: 0%
  percent agglomerates, size 9: 0%
  percent agglomerates, size 10: 0%
  percent agglomerates, size 11: 0%
  percent agglomerates, size 12: 0%
  percent agglomerates, size 13: 0%
  percent free red corpuscles (size of agglomerates 1): 89%
[3]
  inhibition at 100 mg/kg: 63.8%
[4]
  LD50 at 24 h: 118 mg/kg

## O=C(O)C1Cc2sccc2CN1 (centres unmarked) [Example 2, 6-Carboxy-4,5,6,7-tetrahydro-thieno[3,2-c]pyridine]
[4]
  LD50 at 24 h: 235 mg/kg

## O=C(OCc1ccccc1Cl)C1Cc2sccc2CN1Cc1ccccc1Cl (centres unmarked) [Example 13, 5-o-Chlorobenzyl-6-o-chlorobenzyloxycarbonyl-4,5,6,7-tetrahydro-thieno[3,2-c]pyridine]
[1]
  inhibition at 100 mg/kg: 96.1%
[2]; 25 μg
  percent agglomerates, size 2: 26%
  percent agglomerates, size 3: 9%
  percent agglomerates, size 4: 0%
  percent agglomerates, size 5: 0%
  percent agglomerates, size 6: 0%
  percent agglomerates, size 7: 0%
  percent agglomerates, size 8: 0%
  percent agglomerates, size 9: 0%
  percent agglomerates, size 10: 0%
  percent agglomerates, size 11: 0%
  percent agglomerates, size 12: 0%
  percent agglomerates, size 13: 0%
  percent free red corpuscles (size of agglomerates 1): 65%
[2]; 50 μg
  percent agglomerates, size 2: 23%
  percent agglomerates, size 3: 5%
  percent agglomerates, size 4: 4%
  percent agglomerates, size 5: 0%
  percent agglomerates, size 6: 0%
  percent agglomerates, size 7: 0%
  percent agglomerates, size 8: 0%
  percent agglomerates, size 9: 0%
  percent agglomerates, size 10: 0%
  percent agglomerates, size 11: 0%
  percent agglomerates, size 12: 0%
  percent agglomerates, size 13: 0%
  percent free red corpuscles (size of agglomerates 1): 68%
[2]; 100 μg
  percent agglomerates, size 2: 8%
  percent agglomerates, size 3: 3%
  percent agglomerates, size 4: 2%
  percent agglomerates, size 5: 0%
  percent agglomerates, size 6: 0%
  percent agglomerates, size 7: 0%
  percent agglomerates, size 8: 0%
  percent agglomerates, size 9: 0%
  percent agglomerates, size 10: 0%
  percent agglomerates, size 11: 0%
  percent agglomerates, size 12: 0%
  percent agglomerates, size 13: 0%
  percent free red corpuscles (size of agglomerates 1): 87%
[2]; 200 μg
  percent agglomerates, size 2: 9%
  percent agglomerates, size 3: 1%
  percent agglomerates, size 4: 0%
  percent agglomerates, size 5: 0%
  percent agglomerates, size 6: 0%
  percent agglomerates, size 7: 0%
  percent agglomerates, size 8: 0%
  percent agglomerates, size 9: 0%
  percent agglomerates, size 10: 0%
  percent agglomerates, size 11: 0%
  percent agglomerates, size 12: 0%
  percent agglomerates, size 13: 0%
  percent free red corpuscles (size of agglomerates 1): 90%
[5]
  percent agglomerates, size 2: 9%
  percent agglomerates, size 3: 5%
  percent agglomerates, size 4: 0%
  percent agglomerates, size 5: 0%
  percent agglomerates, size 6: 0%
  percent agglomerates, size 7: 0%
  percent agglomerates, size 8: 0%
  percent agglomerates, size 9: 0%
  percent agglomerates, size 10: 0%
  percent free red corpuscles (size of agglomerates 1): 86%
[3]
  inhibition at 100 mg/kg: 64.4%

## O=C(O)C1Cc2sccc2CN1Cc1ccccc1Cl (centres unmarked) [Example 23, 5-o-Chlorobenzyl-6-carboxy-4,5,6,7-tetrahydro-thieno[3,2-c]pyridine]
[1]
  inhibition at 100 mg/kg: 95.2%
[2]; 25 μg
  percent agglomerates, size 2: 21%
  percent agglomerates, size 3: 16%
  percent agglomerates, size 4: 3%
  percent agglomerates, size 5: 0%
  percent agglomerates, size 6: 0%
  percent agglomerates, size 7: 0%
  percent agglomerates, size 8: 0%
  percent agglomerates, size 9: 0%
  percent agglomerates, size 10: 0%
  percent agglomerates, size 11: 0%
  percent agglomerates, size 12: 0%
  percent agglomerates, size 13: 0%
  percent free red corpuscles (size of agglomerates 1): 60%
[2]; 50 μg
  percent agglomerates, size 2: 25%
  percent agglomerates, size 3: 6%
  percent agglomerates, size 4: 4%
  percent agglomerates, size 5: 0%
  percent agglomerates, size 6: 0%
  percent agglomerates, size 7: 0%
  percent agglomerates, size 8: 0%
  percent agglomerates, size 9: 0%
  percent agglomerates, size 10: 0%
  percent agglomerates, size 11: 0%
  percent agglomerates, size 12: 0%
  percent agglomerates, size 13: 0%
  percent free red corpuscles (size of agglomerates 1): 65%
[2]; 100 μg
  percent agglomerates, size 2: 14%
  percent agglomerates, size 3: 5%
  percent agglomerates, size 4: 1%
  percent agglomerates, size 5: 0%
  percent agglomerates, size 6: 0%
  percent agglomerates, size 7: 0%
  percent agglomerates, size 8: 0%
  percent agglomerates, size 9: 0%
  percent agglomerates, size 10: 0%
  percent agglomerates, size 11: 0%
  percent agglomerates, size 12: 0%
  percent agglomerates, size 13: 0%
  percent free red corpuscles (size of agglomerates 1): 78%
[2]; 200 μg
  percent agglomerates, size 2: 11%
  percent agglomerates, size 3: 4%
  percent agglomerates, size 4: 2%
  percent agglomerates, size 5: 0%
  percent agglomerates, size 6: 0%
  percent agglomerates, size 7: 0%
  percent agglomerates, size 8: 0%
  percent agglomerates, size 9: 0%
  percent agglomerates, size 10: 0%
  percent agglomerates, size 11: 0%
  percent agglomerates, size 12: 0%
  percent agglomerates, size 13: 0%
  percent free red corpuscles (size of agglomerates 1): 83%
[5]
  percent agglomerates, size 2: 10%
  percent agglomerates, size 3: 4%
  percent agglomerates, size 4: 1%
  percent agglomerates, size 5: 0%
  percent agglomerates, size 6: 0%
  percent agglomerates, size 7: 0%
  percent agglomerates, size 8: 0%
  percent agglomerates, size 9: 0%
  percent agglomerates, size 10: 0%
  percent free red corpuscles (size of agglomerates 1): 85%
[3]
  inhibition at 100 mg/kg: 63.9%
[4]
  LD50 at 24 h: 180 mg/kg

## CN1Cc2ccsc2CC1C(=O)O (centres unmarked) [Example 25, 5-Methyl-6-carboxy-4,5,6,7-tetrahydro-thieno[3,2-c]pyridine]
[1]
  inhibition at 100 mg/kg: 92.4%
[3]
  inhibition at 100 mg/kg: 61.6%
[4]
  LD50 at 24 h: 325 mg/kg

Source: US4147787A, “4,5,6,7-Tetrahydro-thieno[2,3-c]-and [3,2-c]-pyridines, and therapeutic compositions containing the same” (Parcor, priority 1977, dated 1979)
